Test results reported in patent US8778896B2, “Levoisovalerylspiramycin I, II or III, preparations, preparation methods and uses thereof” (Shenyang Tonglian Group Co., Ltd., priority 2010, dated 2014).

How the values were obtained:
staphylococcus aureus12 [1] = experiment: Curative effect on mouse with abdominal infection (ED50); format: in vivo, staphylococcus aureus; conditions: staphylococcus aureus12, challenging dose 4.8 × 10^4 CFU/0.5 ml, deaths in 7 days, Bliss
Protocol: (§1) Test method: preparation of infection bacterial liquid: taking out the test bacterial liquid which is kept in a refrigerator at −80[…] to room temperature for about 1 h, then inoculating streptococcus pneumonia, pyogenic streptococcus and enterococcus absorbing 0.1 ml bacterial liquid respectively to 2 ml MH broth (add 10% inactivated horse serum), and inoculating 0.1 ml bacterial liquid of staphylococcus aureus to 2 ml MH broth according to the same method above; putting it in an incubator at 37[…] to be cultivated for 18 h, to obtain original bacterial liquid; diluting the original bacterial liquid with 5% gastric mucin to make animals infected with 100% lethal bacteria, to obtain infection bacterial liquid.
(§2) The clinical route of administration of carrimycin is proposed to be oral administration, thus intragastric administration is adopted in carrimychin test. Levoisovalerylspiramycin I (obtained in Embodiment 1) and of crystalline compound of levoisovalerylspiramycin I (prepared in Embodiment 27) are fed to animals via […].
(§3) After the mice are infected, respectively feed each mouse 0.2 ml via intragastric administration at 0.5 to 6 h, and they have no adverse reaction. Observe the number of deaths in 7 days, and calculate the 50% effective dose (ED50) of each drug for the infected mouse and compare the protective effect of drugs by Bliss program.

staphylococcus aureus21 [2] = experiment: as above; format: in vivo, staphylococcus aureus; conditions: staphylococcus aureus21, challenging dose 4.2 × 10^4 CFU/0.5 ml, deaths in 7 days, Bliss
Protocol: as §1, §2, §3

staphylococcus aureus16 [3] = experiment: as above; format: in vivo, staphylococcus aureus; conditions: staphylococcus aureus16, challenging dose 5.2 × 10^3 CFU/0.5 ml, deaths in 7 days, Bliss
Protocol: as §1, §2, §3

staphylococcus aureus76 [4] = experiment: as above; format: in vivo, staphylococcus aureus; conditions: staphylococcus aureus76, challenging dose 5.8 × 10^4 CFU/0.5 ml, deaths in 7 days, Bliss
Protocol: as §1, §2, §3

[5] = test system: streptococcus pneumoniae3; experiment: as above; format: in vivo, streptococcus pneumoniae; conditions: streptococcus pneumoniae3, challenging dose 6.4 × 10^4 CFU/0.5 ml, deaths in 7 days, Bliss
Protocol: as §1, §2, §3

[6] = test system: streptococcus pneumoniae18; experiment: as above; format: in vivo, streptococcus pneumoniae; conditions: streptococcus pneumoniae18, challenging dose 9.6 × 10^4 CFU/0.5 ml, deaths in 7 days, Bliss
Protocol: as §1, §2, §3

[7] = test system: streptococcus pneumoniae57; experiment: as above; format: in vivo, streptococcus pneumoniae; conditions: streptococcus pneumoniae57, challenging dose 8.8 × 10^4 CFU/0.5 ml, deaths in 7 days, Bliss
Protocol: as §1, §2, §3

enterococcus32 [8] = experiment: as above; format: in vivo, enterococcus; conditions: enterococcus32, challenging dose 5.4 × 10^4 CFU/0.5 ml, deaths in 7 days, Bliss
Protocol: as §1, §2, §3

12 strains of bacteria = experiment: Protective effect on mouse infected with 12 strains of bacteria; format: in vivo; conditions: in words
Protocol: as §1, §2, §3

[9] = test system: pyogenic streptococcus 102; experiment: Curative effect on mouse with abdominal infection (ED50); format: in vivo; conditions: pyogenic streptococcus 102, challenging dose 7.8 × 10^4 CFU/0.5 ml, deaths in 7 days, Bliss
Protocol: as §1, §2, §3

[10] = test system: pyogenic streptococcus 772; experiment: as above; format: in vivo; conditions: pyogenic streptococcus 772, challenging dose 6.9 × 10^3 CFU/0.5 ml, deaths in 7 days, Bliss
Protocol: as §1, §2, §3

[11] = test system: pyogenic streptococcus 119; experiment: as above; format: in vivo; conditions: pyogenic streptococcus 119, challenging dose 4.9 × 10^4 CFU/0.5 ml, deaths in 7 days, Bliss
Protocol: as §1, §2, §3

staphylococcus aureus12 [12] = experiment: MIC against the infecting test organism; format: cell-based, staphylococcus aureus
[13] = test system: staphylococcus aureus (155); experiment: Clinical isolates, agar double dilution method; format: cell-based
[14] = test system: pyogenic streptococcus 102; experiment: MIC against the infecting test organism; format: cell-based
staphylococcus aureus76 [15] = experiment: MIC against the infecting test organism; format: cell-based, staphylococcus aureus
[16] = test system: streptococcus pneumoniae3; experiment: MIC against the infecting test organism; format: cell-based, streptococcus pneumoniae
[17] = test system: streptococcus pneumoniae (112); experiment: Clinical isolates, agar double dilution method; format: cell-based
S. epidermidis (115) = experiment: Clinical isolates, agar double dilution method; format: cell-based
[18] = test system: pyogenic streptococcus 119; experiment: MIC against the infecting test organism; format: cell-based
[19] = test system: Mycoplasma Urealyticum and Mycoplasma Pneumoniae strains; experiment: Mycoplasma in vitro MIC (U-PPLO broth); format: cell-based; conditions: determined 4 times, final MIC (24 h)
Protocol: 1. Test methods: adding U-PPLO 0.8 ml to each pore of aseptic 12-pore cell culture plate (adding 0.9 ml to inoculum control pore and 1.0 ml to medium control pore).
2. Add 10^4CCU/ml Uu inoculum 0.1 ml to each experimental pore. The final dose in the pore is 10^3CCU/ml (the medium control pore will not be added with inoculum).
3. Divide into 3 groups (100 μg/ml, 10 μg/ml and 1 μg/ml antibiotic stock solution), Use aseptic Tip to add antibiotic for test to each pore: 100 μl, 50 μl, 25 μl, 12.5 μl according to the double degradation concentration gradient. (The inoculum and medium control pores will not be added with the antibiotic, and meanwhile the antibiotic control pore is arranged.)
4. Blend all pores evenly. Seal the culture plate by tapes and place it in a 37[…] box for culture.
5. On 17-24 hours after the test, observe and record the Uu growth situation. When Uu inoculum control pore presents a positive growth, the minimal antibiotic concentration, which can suppress the growth of Uu, is the MIC of sample.

gonococcus (10) = experiment: Clinical isolates, agar double dilution method; format: cell-based
staphylococcus aureus21 [20] = experiment: MIC against the infecting test organism; format: cell-based, staphylococcus aureus
[21] = test system: pyogenic streptococcus (93); experiment: Clinical isolates, agar double dilution method; format: cell-based
enterococcus32 [22] = experiment: MIC against the infecting test organism; format: cell-based, enterococcus
[23] = test system: pyogenic streptococcus 772; experiment: MIC against the infecting test organism; format: cell-based
[24] = test system: Chlamydia Trachomatis D/UW-3/Cx; experiment: Chlamydia in vitro MIC, McCoy cells, immunofluorescence; format: cell-based; conditions: 48 hours
[25] = test system: Chlamydia Trachomatis B/TW-5/OT; experiment: as above; format: cell-based; conditions: 48 hours
staphylococcus aureus16 [26] = experiment: MIC against the infecting test organism; format: cell-based, staphylococcus aureus
[27] = test system: hemophilus influenzae (37); experiment: Clinical isolates, agar double dilution method; format: cell-based
enterococcus (106) = experiment: Clinical isolates, agar double dilution method; format: cell-based
[28] = test system: streptococcus pneumoniae57; experiment: MIC against the infecting test organism; format: cell-based, streptococcus pneumoniae
[29] = test system: streptococcus pneumoniae18; experiment: MIC against the infecting test organism; format: cell-based, streptococcus pneumoniae
[30] = test system: Chlamydia Pneumoniae CWL-029; experiment: Chlamydia in vitro MIC, HEp-2 cells, immunofluorescence; format: cell-based; conditions: Chlamydia Pneumoniae CWL-029, HEp-2 cells, 72 hours
[31] = in vivo; cited from earlier work

**Q.** Which results are given for `COC1C(O)CC(=O)OC(C)C/C=C/C=C/C(OC2CCC(N(C)C)C(C)O2)C(C)CC(CC=O)C1OC1OC(C)C(OC2CC(C)(O)C(OC(=O)CC(C)C)C(C)O2)C(N(C)C)C1O` (stereo not drawn) [crystal of isovalerylspiramycin I, levoisovalerylspiramycin I]?
**A.** ED50 (staphylococcus aureus12 [1]): 107.46 mg/kg; ED50 (staphylococcus aureus21 [2]): 38.00 mg/kg; ED50 (staphylococcus aureus16 [3]): 21.33 mg/kg; ED50 (staphylococcus aureus76 [4]): 22.26 mg/kg; ED50 [5]: 8.39 mg/kg; ED50 [6]: 8.65 mg/kg; ED50 [7]: 12.82 mg/kg; ED50 (enterococcus32 [8]): 62.11 mg/kg; protective effect (curative effect) on infected mouse (12 strains of bacteria; listed as crystalline compound of isovalerylspiramycin I): better protective effect; ED50 [9]: 60.99 mg/kg; ED50 [10]: 23.37 mg/kg; ED50 [11]: 54.58 mg/kg

**Q.** Which results are given for `COC1C(OC(C)=O)CC(=O)OC(C)C/C=C/C=C/C(OC2CCC(N(C)C)C(C)O2)C(C)CC(CC=O)C1OC1OC(C)C(OC2CC(C)(O)C(OC(=O)CC(C)C)C(C)O2)C(N(C)C)C1O` (stereo not drawn) [crystal of isovalerylspiramycin II, levoisovalerylspiramycin II]?
**A.** ED50 (staphylococcus aureus12 [1]): 104.67 mg/kg; ED50 (staphylococcus aureus21 [2]; listed as crystal of isovalcrylspiramycin II): 36.09 mg/kg; ED50 (staphylococcus aureus16 [3]): 16.18 mg/kg; ED50 (staphylococcus aureus76 [4]): 18.71 mg/kg; ED50 [5]: 7.69 mg/kg; ED50 [6]: 8.09 mg/kg; ED50 [7]: 12.04 mg/kg; ED50 (enterococcus32 [8]): 56.16 mg/kg; protective effect (curative effect) on infected mouse (12 strains of bacteria): good protective effect; ED50 [9]: 58.00 mg/kg; ED50 [10]: 21.90 mg/kg; ED50 [11]: 49.94 mg/kg

**Q.** Which ED50 (staphylococcus aureus12 [1]) does the source give for `CCC(=O)OC1CC(=O)OC(C)C/C=C/C=C/C(OC2CCC(N(C)C)C(C)O2)C(C)CC(CC=O)C(OC2OC(C)C(OC3CC(C)(O)C(OC(=O)CC(C)C)C(C)O3)C(N(C)C)C2O)C1OC` (stereo not drawn) [crystal of isovalerylspiramycin III, levoisovalerylspiramycin III] here?
**A.** 105.24 mg/kg

**Q.** What about the ED50 (staphylococcus aureus21 [2]) of the same molecule?
**A.** 36.09 mg/kg

**Q.** What about the ED50 (staphylococcus aureus16 [3]) of the same molecule?
**A.** 19.29 mg/kg

**Q.** And the ED50 (staphylococcus aureus76 [4])?
**A.** 18.71 mg/kg

**Q.** And the ED50 [5]?
**A.** 6.45 mg/kg

**Q.** What about the ED50 [6] of the same molecule?
**A.** 8.68 mg/kg

**Q.** What about the ED50 [7] of the same molecule?
**A.** 11.08 mg/kg

**Q.** What about the ED50 (enterococcus32 [8]) of the same molecule?
**A.** 65.89 mg/kg

**Q.** What about the “protective effect (curative effect) on infected mouse” value (12 strains of bacteria) of the same molecule?
**A.** good protective effect

**Q.** What about the ED50 [9] of the same molecule?
**A.** 52.91 mg/kg

**Q.** And the ED50 [10]?
**A.** 22.81 mg/kg

**Q.** And the ED50 ([11]; listed as crystal of isovaletylspiramycin III)?
**A.** 49.94 mg/kg

**Q.** What does the source list for acetyl spiramycin [reference compound]?
**A.** MIC (staphylococcus aureus12 [12]): 2048 µg/mL; MIC50 [13]: 64 µg/mL; MIC90 [13]: >64 µg/mL; ED50 (staphylococcus aureus12 [1]): >500 mg/kg; ED50 (staphylococcus aureus21 [2]): >500 mg/kg; ED50 (staphylococcus aureus16 [3]): 43.58 mg/kg; ED50 (staphylococcus aureus76 [4]): 66.63 mg/kg; MIC [14]: 0.5 µg/mL; ED50 [5]: 66.96 mg/kg; ED50 [6]: 37.93 mg/kg; ED50 [7]: 398.01 mg/kg; MIC (staphylococcus aureus76 [15]): 1 µg/mL; MIC [16]: 0.5 µg/mL; MIC50 [17]: 0.12 µg/mL; MIC90 [17]: >64 µg/mL; MIC50 (S. epidermidis (115)): 64 µg/mL; MIC90 (S. epidermidis (115)): >64 µg/mL; MIC [18]: 0.5 µg/mL; MIC [19]: 0.5 µg/mL; MIC50 (gonococcus (10)): 4 µg/mL; MIC90 (gonococcus (10)): 8 µg/mL; MIC range (gonococcus (10)): 0.12 to 64 µg/mL; MIC (staphylococcus aureus21 [20]): 2048 µg/mL; MIC50 [21]: 0.25 µg/mL; MIC90 [21]: >64 µg/mL; MIC (enterococcus32 [22]): 1 µg/mL; MIC [23]: 0.25 µg/mL; MIC [24]: 2 µg/mL; MIC [25]: 4 µg/mL; ED50 (enterococcus32 [8]): 130.34 mg/kg; MIC (staphylococcus aureus16 [26]): 1 µg/mL; MIC50 [27]: 0.12 µg/mL; MIC90 [27]: 4 µg/mL; MIC50 (enterococcus (106)): 4 µg/mL; MIC90 (enterococcus (106)): >64 µg/mL; MIC [28]: 1 µg/mL; MIC [29]: 0.06 µg/mL; MIC [30]: 0.5 µg/mL; ED50 [9]: 227.07 mg/kg; ED50 [10]: 98.11 mg/kg; ED50 [11]: 117.53 mg/kg

**Q.** For spiramycin, which “absolute bioavailability by oral administration” value [31] is on record?
**A.** 30˜40%
